According to US20230312564A1, “AROMATIC RING-LACTAM COMPOUND, PREPARATION METHOD THEREFOR AND USE THEREOF” (SHANGHAI RINGENE BIOPHARMA CO., LTD., priority 2020, published 2023):

Assays:
[1] = system: Colo-205 cells; experiment: Colo-205 tumor cell proliferation, CCK-8, 72 hours; assay type: cell-based
[2] = system: Colo-205 transplanted tumor; experiment: Growth inhibition of nude mice Colo-205 transplanted tumor; assay type: in vivo
[3] = Liver microsomal metabolic stability, dog; assay type: in vitro ADME; conditions: liver microsomes, 0.5 mg/mL microsomes, 1 μM compound, NADPH, read-out: Liver microsomal stability T1/2
Description: The reaction was stopped with tinidazole-containing acetonitrile at 0 min, 5 min, 10 min and 30 min, respectively. After vortexing for 10 min and centrifuging at 15,000 rmp for 10 min, 50 μL of the supernatant was injected into a 96-well plate. The metabolic stability of the compound was calculated by determining the relative reduction of the drug, calculated as half-life T1/2.

[4] = In-vivo pharmacokinetic parameters in SD rats
Description: Six male SPF grade SD rats or Balb-c mice (Shanghai Sipple-Bikai Laboratory Animal) were divided into two groups, and the tested compounds were prepared into appropriate solutions or suspensions; one group was administered intravenously (with a dose of 1 mg/kg), and the other group was administered orally (with a dose of 5 mg/kg). Blood samples were collected by jugular vein puncture, and each sample was collected with a volume of about 0.2 mL/time point, and heparin sodium was used for anticoagulation. The time points of blood collection were listed below: 5, 15 and 30 min […], 1, 2, 4, 6, 8 and 24 h after administration; the collected blood samples were placed on ice and centrifuged to separate plasma (centrifugation conditions: 8,000 rpm, 6 min, 2 to 8° C.), and the collected plasma was stored at −80° C. before analysis. Plasma samples were analyzed by LC-MS/MS.
The pharmacokinetic parameters such as AUC0-t, AUC0-∞, MRT0-∞, Cmax, Tmax, T1/2 and Vd of the tested compounds and their mean values and standard deviations were calculated by the pharmacokinetic calculation software WinNonlin5.2 non-compartmental model according to the plasma concentration data. In addition, the bioavailability (F) was calculated by the following formula.
For samples with concentrations below the lower limit of quantitation, while pharmacokinetic parameter calculations were performed, samples sampled before Cmax was reached should be calculated as a zero value and samples sampled after Cmax was reached should be calculated as below limit of quantitation (BLQ).

[5] = molecular target: CYP2C8 (Homo sapiens, UniProt P11712); experiment: Direct inhibition test (DI test) in human liver microsomes, CYP2C8; assay type: in vitro ADME
[6] = male, rat, plasma, 1 mg/kg, IV, 1 mpk
[7] = male, rat, plasma, 5 mg/kg, PO, 5 mpk

Sequence of CYP2C8 (P11712 whole entry): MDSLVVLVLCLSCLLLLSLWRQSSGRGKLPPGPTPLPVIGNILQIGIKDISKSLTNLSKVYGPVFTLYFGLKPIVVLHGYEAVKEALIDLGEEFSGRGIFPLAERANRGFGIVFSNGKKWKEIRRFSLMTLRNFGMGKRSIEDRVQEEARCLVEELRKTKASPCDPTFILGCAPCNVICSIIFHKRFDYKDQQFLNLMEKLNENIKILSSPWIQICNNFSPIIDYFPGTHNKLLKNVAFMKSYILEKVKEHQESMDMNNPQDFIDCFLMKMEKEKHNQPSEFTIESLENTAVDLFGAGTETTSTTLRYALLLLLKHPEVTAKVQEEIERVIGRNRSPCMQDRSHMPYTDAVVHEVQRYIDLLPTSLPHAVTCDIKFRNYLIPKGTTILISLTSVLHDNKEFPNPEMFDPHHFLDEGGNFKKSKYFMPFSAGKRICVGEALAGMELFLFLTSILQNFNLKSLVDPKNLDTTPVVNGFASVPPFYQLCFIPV

For COc1cc(F)cc([C@@H](CO)NC(=O)[C@@H](C)N2Cc3ccc(-c4nc(NC5CCOCC5)ncc4F)c(F)c3C2=O)c1 [Embodiment 40], the “cell proliferation inhibitory activity (in words)” value ([1]; Colo-205) was “strong cell proliferation inhibitory activity”, the IC50 ([1]; Homo sapiens, COLO 205, 72 hours, CCK-8, numeric values, read-out: Colo-205 IC50) was 3.8 nM and the T/C ([2]; 25 mg/kg, bidx21, po) was 7.2%. For the same compound, the “Initial weight (D0)” value ([2]; 25 mg/kg, bidx21, po) was 19.5 g, the “Terminal weight (D21)” value ([2]; 25 mg/kg, bidx21, po) was 21.0 g and the Initial tumor volume ([2]; 25 mg/kg, bidx21, po) was 97 ± 26 mm^3. For the same compound, the Terminal tumor volume ([2]; 25 mg/kg, bidx21, po) was 67 ± 14 mm^3, the T/C ([2]; 50 mg/kg, qdx21, po) was 23.2% and the “Initial weight (D0)” value ([2]; 50 mg/kg, qdx21, po) was 21.4 g. The “Terminal weight (D21)” value ([2]; 50 mg/kg, qdx21, po) was 23.2 g, the Initial tumor volume ([2]; 50 mg/kg, qdx21, po) was 98 ± 22 mm^3 and the Terminal tumor volume ([2]; 50 mg/kg, qdx21, po) was 238 ± 130 mm^3. The “effect on the tumor weight (in words)” value ([2]; dose of 50 mg/kg or 25 mg/kg) was “no significant effect on the tumor weight”, the “tumor growth of Colo-205 transplanted tumor nude mice (in words)” value ([2]; dose of 50 mg/kg or 25 mg/kg) was “significantly inhibited the tumor growth” and the half-life at 1 μM [3] was 73 min. It also gave an F ([4]; PO 5 mpk vs IV 1 mpk) of 29%, an AUC(0-inf) [4, 6] of 0.304 µM·h and an AUC(0-t) [4, 6] of 0.303 µM·h. For the same compound, the MRT inf [4, 6] was 12 min, the clearance [4, 6] was 94 mL/min/kg and the half-life [4, 6] was 18 min. For the same compound, the Vd ([4]; male, rat, plasma, 1 mg/kg, IV, 1 mpk, read-out: Vss) was 0.9 L/kg, the AUC(0-inf) [4, 7] was 0.436 µM·h and the AUC(0-t) [4, 7] was 0.432 µM·h. For the same compound, the Cmax [4, 7] was 476 nM, the Tmax [4, 7] was 18 min and the half-life [4, 7] was 66 min. For the same compound, the IC50 at 20 min [5] was > 10000 nM.
